Calls of active or inactive are those of the source. No cut-off for these calls is given here.
How the values were obtained:
[1] = biological target: Histone deacetylase; assay: Inhibition of HDAC in human HeLa nuclear extract incubated for 30 mins by fluorescence-based Glo-luminescence assay; type: cell-based
[2] = Toxicity in BALB/c-nu/nu mouse assessed as toxic sign at 2.5 mg/kg, ip measured for 31 days; type: organism-based; conditions: in vivo, 744 h, time 31 day
[3] = test system: MDA-MB-231; assay: Stabilization of DNA Pu22 (unknown origin ) in human MDA-MB-231 cells assessed as G4-quadruplex formation by measuring fold change at 2.5 uM incubated for 6 hrs by immunofluorescence based confocal laser scanning microscopic analysis; type: cell-based
[4] = biological target: Histone deacetylase; assay: Inhibition of HDAC in human MDA-MB-231 cells incubated for 45 mins by luminescence assay; type: cell-based
[5] = test system: MDA-MB-231; assay: Effect on metabolism in human MDA-MB-231 cells assessed as reduction in glycolysis at 2.5 uM measured after 48 hrs by seahorse XF24 analysis; type: functional, cell-based
[6] = Inhibition of full length recombinant N-terminal GST-tagged human HDAC11 expressed in baculovirus infected Sf9 insect cells incubated for 50 mins by Glo- luminescence assay; type: cell-based
[7] = test system: Quadruplex DNA; assay: Binding affinity to 5' FAM and 3' TAMRA-labeled c-myc G4-quadruplex DNA HTG21 (unknown origin) assessed as change in melting temperature by fluorescence resonance energy transfer assay; type: nucleic-acid assay
[8] = test system: MDA-MB-231; assay: Antitumor activity against human MDA-MB-231 cells xenografted in BALB/c-nu/nu mouse assessed as reduction in tumor volume at 2.5 mg/kg, ip measured for 31 days; type: functional, organism-based; conditions: time 31.0 day
[9] = test system: MDA-MB-231; assay: Antitumor activity against human MDA-MB-231 cells xenografted in BALB/c-nu/nu mouse assessed as reduction in tumor growth at 2.5 mg/kg, ip measured for 31 days; type: functional, organism-based; conditions: time 31.0 day
[10] = test system: MDA-MB-468; assay: Cytotoxicity against human MDA-MB-468 cells harboring wild type BRCA1 and BRCA2 mutant reduction in assessed as cell viability; type: functional, cell-based
[11] = biological target: Quadruplex DNA; assay: Binding affinity to […]' FAM-labeled c-myc G4-quadruplex DNA Pu22 (unknown origin) by fluorescence quench assay; type: nucleic-acid assay
[12] = biological target: Quadruplex DNA; assay: Binding affinity to 5' FAM-labeled […] (unknown origin) assessed as dissociation constant by surface plasmon resonance assay; type: nucleic-acid assay
[13] = test system: SUM-159-PT; assay: Cytotoxicity against human SUM159PT cells harboring wild type BRCA1 and wild type BRCA2 assessed as reduction in cell viability; type: functional, cell-based
[14] = test system: MDA-MB-231; assay: Inhibition of cell invasion in human MDA-MB-231 cells at 2.5 uM incubated for 48 hrs by crystal violet staining based transwell assay; type: functional
[15] = biological target: Histone deacetylase 1 (Homo sapiens, UniProt Q13547); assay: Inhibition of full length recombinant C-terminal GST-tagged human HDAC1 expressed in baculovirus infected Sf9 insect cells incubated for 50 mins by Glo- luminescence assay
Sequence of Histone deacetylase 1 (Q13547 whole entry): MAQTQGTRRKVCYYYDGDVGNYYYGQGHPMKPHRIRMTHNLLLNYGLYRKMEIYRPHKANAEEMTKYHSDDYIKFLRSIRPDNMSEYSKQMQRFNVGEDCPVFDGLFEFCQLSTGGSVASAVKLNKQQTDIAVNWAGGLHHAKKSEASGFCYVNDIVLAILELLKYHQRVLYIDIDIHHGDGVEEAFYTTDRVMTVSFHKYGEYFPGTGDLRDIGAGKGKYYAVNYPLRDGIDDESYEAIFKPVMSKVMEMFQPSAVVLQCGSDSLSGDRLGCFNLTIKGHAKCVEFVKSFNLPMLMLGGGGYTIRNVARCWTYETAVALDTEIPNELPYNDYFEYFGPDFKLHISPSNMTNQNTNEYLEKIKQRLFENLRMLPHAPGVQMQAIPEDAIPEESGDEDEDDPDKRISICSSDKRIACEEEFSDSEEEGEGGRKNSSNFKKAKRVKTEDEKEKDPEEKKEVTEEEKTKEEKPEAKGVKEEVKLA

[16] = test system: MDA-MB-231; assay: Effect on metabolism in human MDA-MB-231 cells assessed as oxygen consumption rate at 2.5 uM measured after 48 hrs by seahorse XF24 analysis; type: functional, cell-based
[17] = test system: MDA-MB-231; assay: Induction of cell cycle arrest in human MDA-MB-231 cells assessed as accumulation at G2/M phase at 2.5 uM measured for 6 to 48 hrs; type: functional, cell-based; conditions: time 6-48 hrs
[18] = Elimination half life in Sprague-Dawley rat at 2 mg/kg, iv measured up to 24 hrs by LC-MS/MS analysis; type: ADME, organism-based; conditions: in vivo, read-out: beta t1/2 (converted)
[19] = test system: BT-549; assay: Inhibition of colony formation in human BT-549 cells measured for 7 days by crystal violet staining based assay; type: functional, cell-based; conditions: dose 2.5 µM, time 7.0 day, DDE = dose-dependent effect
[20] = biological target: Quadruplex DNA; assay: Binding affinity to 5' FAM-labeled c-myc G4-quadruplex DNA Pu22 (unknown origin) assessed as dissociation constant by surface plasmon resonance assay; type: nucleic-acid assay
[21] = biological target: T1, Protein deacetylase HDAC6 (Homo sapiens, UniProt Q9UBN7); assay: Inhibition of full length recombinant N-terminal GST-tagged human HDAC6 expressed in baculovirus infected Sf9 insect cells incubated for 50 mins by Glo- luminescence assay
T1 sequence (Q9UBN7 whole entry): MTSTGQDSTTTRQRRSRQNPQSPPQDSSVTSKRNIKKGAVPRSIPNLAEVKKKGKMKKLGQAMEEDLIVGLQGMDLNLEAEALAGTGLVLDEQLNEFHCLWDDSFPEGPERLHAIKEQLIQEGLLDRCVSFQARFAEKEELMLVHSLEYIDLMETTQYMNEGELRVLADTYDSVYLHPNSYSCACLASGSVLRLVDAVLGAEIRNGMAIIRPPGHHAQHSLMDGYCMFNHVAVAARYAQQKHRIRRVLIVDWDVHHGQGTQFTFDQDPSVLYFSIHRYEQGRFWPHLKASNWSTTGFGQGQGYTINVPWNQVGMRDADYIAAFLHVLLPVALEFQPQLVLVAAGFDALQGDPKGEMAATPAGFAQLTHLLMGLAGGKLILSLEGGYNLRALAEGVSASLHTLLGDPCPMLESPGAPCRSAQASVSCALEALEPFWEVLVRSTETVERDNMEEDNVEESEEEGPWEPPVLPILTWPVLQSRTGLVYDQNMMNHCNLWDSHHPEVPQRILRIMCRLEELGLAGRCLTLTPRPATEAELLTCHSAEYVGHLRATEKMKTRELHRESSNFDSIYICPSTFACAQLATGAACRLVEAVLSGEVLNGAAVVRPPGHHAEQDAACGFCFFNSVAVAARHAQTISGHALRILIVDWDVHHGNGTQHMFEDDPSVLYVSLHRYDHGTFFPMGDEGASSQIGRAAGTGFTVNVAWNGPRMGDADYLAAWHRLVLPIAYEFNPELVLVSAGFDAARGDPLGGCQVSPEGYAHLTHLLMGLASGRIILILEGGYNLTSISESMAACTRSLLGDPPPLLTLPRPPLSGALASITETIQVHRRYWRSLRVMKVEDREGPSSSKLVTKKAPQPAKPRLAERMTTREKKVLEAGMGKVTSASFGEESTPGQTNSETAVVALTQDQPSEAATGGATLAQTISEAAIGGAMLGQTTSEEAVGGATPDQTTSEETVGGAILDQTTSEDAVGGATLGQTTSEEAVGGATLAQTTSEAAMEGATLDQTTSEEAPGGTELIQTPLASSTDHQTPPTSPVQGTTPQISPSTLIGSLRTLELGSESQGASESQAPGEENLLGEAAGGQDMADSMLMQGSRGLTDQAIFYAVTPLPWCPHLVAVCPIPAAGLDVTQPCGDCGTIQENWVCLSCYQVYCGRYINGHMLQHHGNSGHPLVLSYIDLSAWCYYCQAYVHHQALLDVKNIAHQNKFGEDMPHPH

[22] = test system: SUM-159-PT; assay: Induction of DNA damage in human SUM159PT at 1.25 to 5 uM assessed as increase in gamma-H2AX level and measured for 48 hrs by DAPI staining method; type: functional, cell-based; conditions: dose 1.25-5 µM
[23] = biological target: Histone deacetylase (Homo sapiens) (UniProt Q13547+O15379+Q9UBN7+Q92769+Q9UQL6+Q8WUI4+Q9BY41+Q96DB2+P56524+Q9UKV0+Q969S8); assay: Inhibition of HDAC in human SUM159PT cells assessed as increase in acetylated alpha-tubulin level at 1.25 to 5 uM by Western blot analysis; type: cell-based; conditions: dose 1.25-5 µM

In the case of `CN(C)CCCNC(=O)c1ccc(/C=C2\CCn3c2nc2cc(N4CCN(CCCCCCCC(=O)NO)CC4)c(F)cc2c3=O)cc1.Cl`, the IC50 [1] is reported as 1.9 µM, the Activity [2] is reported as “Non-Toxic” and the Activity [3] is reported as “Active”. For the same compound, the IC50 [4] was 1.1 µM, the Activity [5] was “Active” and the IC50 [6] was 1.38 µM. The ΔTm [7] was 2 °C, the Activity [8] was “Active” and the Activity [9] was “Active”. It also gave an IC50 [10] of 3.3 µM, a DC50 [11] of 0.1 µM and a Kd [12] of 4.5 µM. For the same compound, the IC50 [13] was 7.4 µM, the inhibition [14] was “Active” and the IC50 [15] was 1.26 µM. The Activity [16] was “Active”, the Activity [17] was “Active” and the half-life [18] was 7.4 h. The inhibition [19] was “Dde”, the Kd [20] was 1.6 µM and the IC50 [21] was 0.65 µM. For the same compound, the Activity [22] was “Active” and the inhibition [23] was “Active”.

— ChEMBL document CHEMBL5113518, “Discovery of a Novel G-Quadruplex and Histone Deacetylase (HDAC) Dual-Targeting Agent for the Treatment of Triple-Negative Breast Cancer” (J Med Chem, 2022)
